The text below walks through data of patent publication US20260078341A1, “TREATMENT OF CANCER USING CHIMERIC ANTIGEN RECEPTOR” (Novartis AG, priority 2014, published 2026).

The subject of this experiment is SKOV3. Description: SKOV3 ovarian tumor model, C4-27z CAR-T cells plus exogenous cytokines. As to conditions: for antitumor efficacy of cytokine in combination with CAR-T cell injection: 5 μg daily i.p. for 7 days with 5×10^6 C4-27z CAR-T cells. Type of experiment: in vivo, NSG mice.

“Also recorded” adds a separate entry of the source.

Take “IL-15: common γ-chain family cytokine, exogenous”: the “antitumor efficacy of cytokine in combination with CAR-T cell injection” value was “best tumor suppression”. For the same substance, the “CD4+ and CD8+ T cells in peripheral blood” value (15 days after adoptive transfer) was “Highest numbers of CD4+ and CD8+ T cells”. Besides, the “human T cell number in the tumor” value (73 days after tumor challenge) is “highest T cell number in the tumor”. As to “IL-18: immunostimulatory, proinflammatory cytokine belonging to the IL-1 family”, the “antitumor efficacy of cytokine in combination with CAR-T cell injection” value was “heaviest tumor burden; also recorded: no enhanced effect on antitumor efficacy”. Same read-out and setting: the same measure for “IL-21: common γ-chain family cytokine, exogenous”: “best tumor suppression”.
